# Target: T1, recombinant autotaxin (Homo sapiens, UniProt Q13822)
# T1 construct: made in house; host or cells: Hi5 insect cells (baculovirus)
# Assay: Autotaxin test (enzyme test), Amplex Red
# Type: biochemical
# Details: Autotaxin inhibition (enzyme test), TABLE 1 (A compounds); substrate LPC 75 μM
# Protocol: The autotaxin activity is measured indirectly using Amplex Red reagent. Amplex Red is measured here as fluorogenic indicator for the H2O2 formed. In detail, autotaxin converts the substrate lysophosphatidylcholine (LPC) into phosphocholine and lysophosphatidylic acid (LPA). After this reaction, the phosphocholine is reacted with alkaline phosphatase to give inorganic phosphate and choline. In the next step, choline is oxidised by choline oxidase to give betaine, with formation of H2O2. H2O2 reacts with Amplex Red reagent in the presence of peroxidase (horseradish peroxidase) in a 1:1 stoichiometry and forms the highly fluorescent resorufin. The fluorescence is measured in a reaction-dependent kinetic mode in order that fluorescent signals from possible other fluorescent substances which are not involved in the reaction can be corrected out.
# 1.5 μl of a standard solution or of the test substances (substances with the name A(n))in individual concentrations dissolved in 20 mM Hepes pH 7.2 with a maximum of 7.7% of DMSO are pre-incubated together with 10 μl (16 ng) of highly purified recombinant autotaxin in a black microtitre plate provided with 384 wells at 22° C. for 30 min. The reaction is then initiated by addition of 5 μl of L-α-lysophosphatidylcholine (LPC), where the final concentration of LPC is 75 μM. The mixture is incubated at 37° C. for 90 min. After the incubation, Amplex Red reagent, peroxidase (horseradish peroxidase) and choline oxidase is added, and the fluorescence is immediately measured at 612 nm with excitation of 485 nm in a “Tecan Ultra multimode” reader. The activity of autotaxin is calculated indirectly via detection of the H2O2 formed.
# • Microtitre plate: PS microplate, 384 wells, small volume, black Corning, Cat#3677 • Protein: recombinant autotaxin (Baculovirale Hi5 Expression) • Substrate: L-α-lysophosphatidylcholine (chicken egg)); Avanti Polar Lipids # 830071 P • Standard: C14 LPA, Avanti Polar Lipids, Cat# 857120P • Detection reagent: Amplex Red reagent; Invitrogen # A12222; dissolved in 1.923 ml of DMSO peroxidase type VI-A (horseradish) from Sigma # P6782; dissolved in 7.45 ml of test buffer, choline oxidase; Sigma # C5896; dissolved in 2.47 ml of test buffer • Detection reagent mix: 1:100 dilution of Amplex Red reagent in test buffer • Test buffer: 200 mM Tris HCl, Merck, Cat # 1.08219, pH 7.9, 0.1% of BSA, lipid-free, Roche Cat#775835
row,Structure (SMILES),IC50 [nM]
1,"O=C(CN1CCc2nc3ccccc3c(C(=O)N3CCOCC3)c2C1)Nc1cccc(Cl)c1 [Compound A9, N-(3-Chlorophenyl)-2-[10-(morpholine-4-carbonyl)-3,4-dihydro-1H-benzo-[b][1,6]naphthyridin-2-yl]acetamide]",> 1000
2,"COc1ccccc1NC(=O)CN1CCc2nc3ccccc3c(C(=O)N3CCOCC3)c2C1 [Compound A10, N-(2-Methoxyphenyl)-2-[10-(morpholine-4-carbonyl)-3,4-dihydro-1H-benzo-[b][1,6]naphthyridin-2-yl]acetamide]",> 1000
3,"Cc1ccc(Cl)cc1NC(=O)CN1CCc2nc3ccccc3c(C(=O)N3CCOCC3)c2C1 [Compound A11, N-(5-Chloro-2-methylphenyl)-2-[10-(morpholine-4-carbonyl)-3,4-dihydro-1H-benzo[b][1,6]naphthyridin-2-yl]acetamide]",> 1000
4,"COc1ccc(-c2ccccc2)cc1NC(=O)CN1CCc2nc3ccccc3c(C(=O)N3CCOCC3)c2C1 [Compound A14, N-(4-Methoxybiphenyl-3-yl)-2-[10-(morpholine-4-carbonyl)-3,4-dihydro-1H-benzo[b][1,6]naphthyridin-2-yl]acetamide]",100 to 1000
5,"COc1ccc(Cl)cc1NC(=O)CN1CCc2nc3cc(Cl)ccc3c(C(=O)N3CCOCC3)c2C1 [Compound A15, N-(5-Chloro-2-methoxyphenyl)-2-[7-chloro-10-(morpholine-4-carbonyl)-3,4-dihydro-1H-benzo[b][1,6]naphthyridin-2-yl]acetamide]",100 to 1000
6,"COc1ccc(Cl)cc1NC(=O)CN1CCc2nc3c(Cl)cccc3c(C(=O)N3CCOCC3)c2C1 [Compound A16, N-(5-Chloro-2-methoxyphenyl)-2-[6-chloro-10-(morpholine-4-carbonyl)-3,4-dihydro-1H-benzo[b][1,6]naphthyridin-2-yl]acetamide]",100 to 1000
7,"CCc1ccc2c(C(=O)N3CCOCC3)c3c(nc2c1)CCN(CC(=O)Nc1cc(Cl)ccc1OC)C3 [Compound A17, N-(5-Chloro-2-methoxyphenyl)-2-[7-ethyl-10-(morpholine-4-carbonyl)-3,4-dihydro-1H-benzo[b][1,6]naphthyridin-2-yl]acetamide]",100 to 1000
8,"COc1ccc(Cl)cc1NC(=O)CN1CCc2nc3ccccc3c(C(=O)N3CCN(C(=O)OCc4ccccc4)CC3)c2C1 [Compound A25, 4-{2-[(5-Chloro-2-methoxyphenylcarbamoyl)methyl]-1,2,3,4-tetrahydrobenzo[b][1,6]naphthyridine-10-carbonyl}piperazine-1-carboxylic acid benzyl ester]",100 to 1000

# Second part, the compound after the results:
row,IC50 [nM],Structure (SMILES)
1,< 100,"COc1ccc(Cl)cc1NC(=O)CN1CCc2nc3ccccc3c(C(=O)N3CCN(C)CC3)c2C1 [Compound A1, N-(5-chloro-2-methoxyphenyl)-2-[10-(4-methylpiperazine-1-carbonyl)-3,4-dihydro-1H-benzo[b][1,6]naphthyridin-2-yl]acetamide]"
2,< 100,"COc1ccc(Cl)cc1NC(=O)CN1CCc2nc3ccccc3c(C(=O)N3CCOCC3)c2C1 [Compound A7, N-(5-chloro-2-methoxyphenyl)-2-[10-(morpholine-4-carbonyl)-3,4-dihydro-1H-benzo[b][1,6]naphthyridin-2-yl]acetamide]"
3,100 to 1000,"COc1ccc(C)cc1NC(=O)CN1CCc2nc3ccccc3c(C(=O)N3CCOCC3)c2C1 [Compound A12, N-(2-Methoxy-5-methylphenyl)-2-[10-(morpholine-4-carbonyl)-3,4-dihydro-1H-benzo[b][1,6]naphthyridin-2-yl]acetamide]"
4,< 100,"COc1ccc(Br)cc1NC(=O)CN1CCc2nc3ccccc3c(C(=O)N3CCOCC3)c2C1 [Compound A13, N-(5-Bromo-2-methoxyphenyl)-2-[10-(morpholine-4-carbonyl)-3,4-dihydro-1H-benzo[b][1,6]naphthyridin-2-yl]acetamide]"
5,< 100,"CCN1CCN(C(=O)c2c3c(nc4ccccc24)CCN(CC(=O)Nc2cc(Cl)ccc2OC)C3)CC1 [Compound A23, N-(5-Chloro-2-methoxyphenyl)-2-[10-(4-ethylpiperazine-1-carbonyl)-3,4-dihydro-1H-benzo[b][1,6]naphthyridin-2-yl]acetamide]"

# From patent publication US20110230471A1, “BENZONAPHTYRIDINE COMPOUNDS AS INHIBITORS OF AUTOTAXIN” (MERCK PATENT GESELLSCHAFT MIT BESCHRANKTER HAFTUNG, priority 2008, published 2011)
